Laboratory results published in patent publication US20210024483A1, “HETEROCYLCOALKENYL DERIVATIVES USEFUL AS AGONISTS OF THE GPR120 AND / OR GPR40” (Janssen Pharmaceutica NV, priority 2018, published 2021).

System: DIO mice (C57Bl6 on high fat diet)
Experiment: GPR120 DIO Mice OGTT Screening
Type: in vivo, mouse
Conditions: 3 mg/kg, glucose AUC −30 to 90 min, change from vehicle
Description: GPR120 DIO Mice OGTT Screening
18-22 week old, C57Bl6 mice on a high fat diet (60% HFD) for 12-16 weeks (average body weight ˜37-41 g) were fasted for 6 hr, with removal of food occurring at 7 am on the morning of the study. The animals were sorted into treatment groups the day before the study by body weight. Animals outside the bounds of ˜30-50 g were left out of the study. The animals had been handled and shammed a total of 5-8 days (1-3 days immediately prior to the study). Glucose (in 1 mL syringes) was drawn up the morning of the study. Test compounds were kept spinning and were only drawn into 1 ml syringes prior to study commencement. […]
Animals were moved into the testing room at ˜9-11 am, to yield them time to acclimate. […] All groups were dosed 30 minutes prior to glucose administration at a dose volume of 10 ml/kg (the dose volume was calculated separately for each individual animal). […]
Thirty minutes after the first dose (with test compound) animals were bled again for a second baseline, or T=0, and immediately dosed with glucose (20% solution; TEKNOVA, 250 ml sterile bottle w/catalogue number G0525) via a PO injection. The exact dose volume for glucose was also calculated separately for each individual animal.
Blood glucose was measured at 15, 30, 45, 60, and 90 minutes post-glucose administration via the snipped tail. […]

## Cc1c(CCC(=O)O)ccc(OCC2=C(c3ccc(Cl)cc3)COCC2)c1C [ID No. 745, 3-[4-[[5-(4-chlorophenyl)-3,6-dihydro-2H-pyran-4-yl]methoxy]-2,3-dimethyl-phenyl]propanoic acid]
  DIO lowering (−30 to 90): −63%
